Data as given in patent US20060004055A1, “Derivative of 5-(4-bromophenyl)-1-(2,4-dichlorophenyl)-4-ethyl-N-(piperidine-1-yl)-1H-pyrazole-3-carboxamide, the preparation and therapeutic use thereof” (Sanofi-Aventis, priority 2002, published 2006).

Assays:
[1] = toxicity
[2] = molecular target: cannabinoid CB1 receptors; assay: in vitro affinity for cannabinoid CB1 receptors (Rinaldi-Carmona et al., FEBS Letters 1994); type: binding; details: conditions of Rinaldi-Carmona et al., FEBS Letters, 1994, 350, 240-244
cannabinoid CB1 receptors, sequence (P21554 whole entry): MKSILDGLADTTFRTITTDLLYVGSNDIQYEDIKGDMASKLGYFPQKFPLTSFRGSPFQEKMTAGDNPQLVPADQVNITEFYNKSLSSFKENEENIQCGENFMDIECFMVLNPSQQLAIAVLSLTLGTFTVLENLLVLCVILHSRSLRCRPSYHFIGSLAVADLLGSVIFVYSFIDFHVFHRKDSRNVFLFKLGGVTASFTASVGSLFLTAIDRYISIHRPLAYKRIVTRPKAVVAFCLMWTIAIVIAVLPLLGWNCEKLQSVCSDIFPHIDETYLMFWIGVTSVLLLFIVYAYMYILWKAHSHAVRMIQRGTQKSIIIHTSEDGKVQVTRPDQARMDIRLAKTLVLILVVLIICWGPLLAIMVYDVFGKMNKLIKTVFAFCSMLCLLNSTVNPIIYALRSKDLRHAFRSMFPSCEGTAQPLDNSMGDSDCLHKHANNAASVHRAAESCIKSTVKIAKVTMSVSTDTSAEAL

IC50 [2]: 0.032 µM
Compound: CCc1c(C(=O)NN2CCC(O)CC2)nn(-c2ccc(Cl)cc2Cl)c1-c1ccc(Br)cc1 [compound of formula (I), 5-(4-Bromophenyl)-1-(2,4-dichlorophenyl)-4-ethyl-N-(hydroxypiperidin-1-yl)-1H-pyrazole-3-carboxamide]
toxicity [1]: compatible with its use as a medicinal product
